Measurements taken from US20110002993A1, “FILM COATED TABLETS CONTAINING DROSPIRENONE AS ACTIVE AGENT AND A METHOD FOR THE PREPARATION THEREOF” (RICHTER GEDEON NYRT., priority 2007, published 2011).

Experiment: solubility of drospirenone in water
Assay type: physicochemical
Excerpt: For dissolution of such a large amount of active agent a large amount of pharmaceutically and environmentally acceptable solvent is needed. […] In the preparation process according to the invention the solvent is ethanol. Ethanol is the most advantageous solvent from the environmental and safety point of views.

solubility in water: substantially insoluble in water
Structure (SMILES): C[C@]12CCC(=O)C=C1[C@@H]1C[C@@H]1[C@H]1[C@@H]3[C@@H]4C[C@@H]4[C@@]4(CCC(=O)O4)[C@@]3(C)CC[C@@H]12 [drospirenone, 6β,7β;15β,16β-dimethylene-3-oxo-17α-pregn-4-en-21,17-carbolactone]
